How the values were obtained:
[1] = system: patients undergoing a clinically indicated coronary catheterization; experiment: Coronary blood flow velocity (CBFv) by Doppler flow wire after IV bolus, open label study (Example 1); type: in vivo, human
Experimental: The purpose of this open label study was to determine the magnitude and duration of effect of Regadenoson (10-500 μg) on CBFv in humans.
Patients undergoing a clinically indicated coronary catheterization with no more than a 70% stenosis in any coronary artery and no more than a 50% stenosis of the study vessel had CBFv determined by Doppler flow wire. Study subjects were selected after measuring baseline and peak CBFv after an intracoronary (IC) injection of 18 μg of Ado. Twenty-three patients, who were identified as meeting the study criteria of having a peak to baseline CBFv ration of ≧2.5 in response to Adenosine, received a rapid (≦10 sec) peripheral IV bolus of Regadenoson; Doppler signals were stable and interpretable over the time-course of the increase in CBFv in 17 patients.

[2] = system: patients undergoing a clinically indicated coronary catheterization; experiment: Dose-ranging study of coronary flow velocity, heart rate and blood pressure after IV bolus (Example 2); type: in vivo, human
Experimental: The study included patients undergoing a clinically indicated coronary catheterization with no more than a 70% stenosis in any coronary artery and no more than a 50% stenosis of the study vessel had CBFv determined by Doppler flow wire. Study subject were selected after measuring baseline and peak CBFv after an intracoronary (IC) injection of 18 μg of Ado. 36 subjects were identified as meeting the study criteria of having a peak to baseline CBFv ration of ≧2.5 in response to Adenosine,
Regadenoson was administered to the study subjects by IV bolus in less than 10 seconds in amounts ranging from 10 μg to 500 μg. Regadenoson is selective for the A2A adenosine receptor.
The effectiveness of both compounds was measured by monitoring coronary flow velocity. Other coronary parameters that were monitored included heart rate and blood pressure. These parameters were measured in order to evaluate the time to peak dose response, the magnitude of the dose response and the duration of the dose response. Adverse events were also monitored. Coronary blood flow velocity was measured at the LAD or LCx vessel. The velocity measurements were taken by following standard heart catheterization techniques and inserting a 0.014 inch Doppler-tipped Flowire into the LAD or LCx vessel and thereafter monitoring blood flow velocity. In addition, hemodynamic and electrocardiographic measurements were recorded continuously.
Overall, 36 human subjects (n=36) were evaluated. Of the 36, 18 were female and 18 were male. Their mean age was 53.4 and they ranged from 24-72 years in age. Of the 36 subjects evaluated, the LAD vessel of 31 subjects was monitored, and the LCx vessel of 5 subjects was monitored. The following doses (μg) of Regadenoson were given to the subjects in a single iv bolus: 10 (n=4); 30 (n=6); 100 (n=4); 300 (n=7); 400 (n=9); 500 (n=6).

[3] = system: healthy, non-smoking male subjects; experiment: Phase 1 ascending dose study, safety and maximum tolerated dose (Example 3); type: in vivo, human
Experimental: The study was performed using thirty-six healthy, non-smoking male subjects between the ages of 18 and 59 and within 15% of ideal body weight.
The study was performed in phase 1, single center, double-blind, randomized, placebo-controlled, crossover, ascending dose study. Randomization was to Regadenoson or placebo, in both supine and standing positions.
Regadenoson was administered as an IV bolus (20 seconds) in ascending doses of […], 10, 20 and 30 μg/kg.
Subjects received either Regadenoson of placebo on Day 1 supine, then crossover treatment on Day 2 supine. On Day 3, subjects received Regadenoson or placebo standing, then crossover treatment on Day 4 standing.
Patient safety was monitored by ECG, laboratory assessments, and collection of vital signs and adverse events.

[4] = system: subjects undergoing pharmacologic stress MPI; experiment: Adverse effects and hemodynamics in pharmacologic stress myocardial perfusion imaging protocol (Example 7); type: in vivo, human
Source text: 36 subjects (27 men, 9 women; 67±10 years) were studied with two doses of Regadenoson [400 mcg (n=18), 500 mcg (n=18)], administered as an IV bolus, as part of a pharmacologic stress myocardial perfusion imaging protocol.

[5] = system: awake dogs; experiment: Blood flow in coronary, mesenteric, hind limb and renal vascular beds (Example 8); type: in vivo, dog
Source text: In this study the vasodilator effects of Regadenoson were compared to those of ADO in different vascular beds in awake dogs. Dogs were chronically instrumented for measurements of the blood flow in coronary (CBF), mesenteric (MBF), hind limb (LBF), and renal (RBF) vascular beds, and hemodynamics.

[6] = system: COPD patients; details: both, human, in vivo
Source text: COPD patients were selected from two phase III randomized, triple-blind, placebo-controlled, multicenter studies (N=2,015) designed to test the strength of agreement for reversible cardiac defects between ADO and REG. There were 35 patients in the ADO group and 69 in the Regadenoson group. Age and gender were similar between ADO (68=11 yrs; 77% male) and Regadenoson group (68±11 yrs; 81% male). Of the 35 patients, 5 suffered (14%) cardiac symptoms in the ADO group vs 3/69 (4%) in the Regadenoson group (p=0.12); 14/35 (40%) in the ADO vs. 20/69 (29%) in the Regadenoson group resorted respiratory symptoms (p=0.28). Angina, occurrence of second degree AV block, acute pulmonary oedema and ronchi were higher in ADO group; nausea, GI discomfort and headache occurred more often in the Regadenoson group.

[7] = 400 μg IV bolus, about 1 minute after dosing
[8] = 30 μg/kg supine, 4 subjects per group
[9] = 400 or 500 mcg IV bolus, 36 subjects

With `CNC(=O)c1cnn(-c2nc(N)c3ncn([C@@H]4O[C@H](CO)[C@@H](O)[C@H]4O)c3n2)c1` [Regadenoson, (1-{9-[(4S,2R,3R,5R)-3,4-dihydroxy-5-(hydroxymethyl)oxolan-2-yl]-6-aminopurin-2-yl}pyrazol-4-yl)-N-methylcarboxamide] the “maximal decrease in systolic BP” value ([1]; 500 μg IV bolus) was 8.7±7.6, the “maximal increase in HR” value ([1]; 500 μg IV bolus) was 18.7±4.0 and the “adverse events (AEs)” value ([1]; 3 patients receiving the 500 μg dose) was “No AEs”. The “adverse events (AEs)” value ([1]; 10-500 μg IV bolus, nausea, flushing, headache, mild and self-limited) was “infrequent”, the “peak to baseline CBFv ratio” value ([1]; Regadenoson 100, 300 and 500 μg IV bolus, mean ±SD) was 3.2±0.6 and the “maximum decrease in diastolic BP” value [2, 7] was 10±5 mmHg. For the same molecule, the “maximum decrease in systolic BP” value [2, 7] was 20±8 mmHg, the “maximum increase in heart rate” value [2, 7] was 18±8 bpm and the tolerability ([2]; 10-500 μg IV bolus) was “generally well tolerated”. For the same molecule, the “amount at which plateau peak flow velocity is reached” value ([2]; IV bolus) was “less than 100 μg”, the “lowest amount that increases peak flow velocity” value ([2]; IV bolus) was 10 µg and the “time to peak flow” value ([2]; all doses (10-500 μg IV bolus)) was “about 30 seconds”. For the same molecule, the “peak effects compared with adenosine” value ([2]; doses above about 100 μg) was “equivalent to 18 μg ic adenosine”, the “number of subjects with severe AE: Palpitation” value [3, 8] was 2 and the “number of subjects with severe AE: Syncope” value [3, 8] was 0. The tolerability ([3]; healthy volunteers, single IV bolus) was “well-tolerated”, the mean tolerable dose ([3]; standing) was 0.01 mg/kg and the mean tolerable dose ([3]; supine) was 0.02 mg/kg. For the same molecule, the incidence of dizziness ([4]; 400-mcg group) was 11%, the incidence of dyspnea ([4]; 400-mcg group) was 17% and the incidence of flushing ([4]; 400-mcg group) was 17%. For the same molecule, the “mean change in HR response” value ([4]; 400 mcg dose) was 34.8%, the “patients with adverse effects (AE)” value [4, 9] was 72% and the “patients with adverse effects (AE), number” value [4, 9] was 26 pts. For the same molecule, the incidence of dizziness ([4]; 500-mcg group) was 28%, the incidence of dyspnea ([4]; 500-mcg group) was 44% and the incidence of flushing ([4]; 500-mcg group) was 44%. The “mean change in HR response” value ([4]; 500 mcg dose) was 44.2%, the “incidence of abdominal pain” value ([4]; both doses) was 11% and the “incidence of chest discomfort” value ([4]; both doses) was 33%. For the same molecule, the incidence of headache ([4]; both doses) was 25%, the “lowest systolic BP (did not fall below)” value ([4]; either dose) was no less than 90 mmHg and the “serious AE” value ([4]; exacerbation of a migraine headache, required hospitalization) was “One serious AE occurred”. The “AEs resolved within 15 min without treatment” value ([4]; in vivo) was 91%, the “AEs that were mild to moderate” value ([4]; in vivo) was 96% and the “AV block and arrhythmias” value ([4]; in vivo) was “No 2nd or 3rd degree AV block was noted and there were no serious arrhythmias”. The “patients developing ST abnormalities” value ([4]; in vivo) was 7 pts, the “patients developing T wave abnormalities” value ([4]; in vivo) was 5 pts and the “time of peak hemodynamic effect, diastolic BP” value ([4]; in vivo) was 8 min. For the same molecule, the “time of peak hemodynamic effect, heart rate” value ([4]; in vivo) was no more than 2 min, the “time of peak hemodynamic effect, systolic BP” value ([4]; in vivo) was 4 min and the “Diastolic BP, Absolute Change (peak)” value ([4]; mean ±S.D., 400 and 500 mcg) was −5.4 ± 7.2 mmHg. The “Diastolic BP, Relative Change (peak)” value ([4]; mean ±S.D., 400 and 500 mcg) was −7.9% ± 10.5%, the “Heart Rate, Absolute Change (peak)” value ([4]; mean ±S.D., 400 and 500 mcg) was “+21.9 ± 10.4 beats per min” and the “Heart Rate, Relative Change (peak)” value ([4]; mean ±S.D., 400 and 500 mcg) was “+36.7% + 21.0%”. The “Systolic BP, Absolute Change (peak)” value ([4]; mean ±S.D., 400 and 500 mcg) was −5.9 ± 10.7 mmHg, the “Systolic BP, Relative Change (peak)” value ([4]; mean ±S.D., 400 and 500 mcg) was −4.1% ± 7.6% and the “BP deviation from baseline” value ([4]; thirty min after Regadenoson) was less than 2%. For the same molecule, the HR above baseline ([4]; thirty min after Regadenoson) was 8.6%, the “potency relative to adenosine in increasing coronary blood flow velocity (CBFv)” value ([5]; awake dogs) was greater than 100 fold and the “increase in hind limb blood flow (LBF)” value ([5]; mean ±SE, n=6, FIG. 18) was “smaller increase in LBF than ADO”. The “patients with cardiac symptoms” value [6] was 4%, the “patients with cardiac symptoms, number” value [6] was 3/69 and the “patients with respiratory symptoms” value [6] was 29%. For the same molecule, the “patients with respiratory symptoms, number” value [6] was 20/69.
